biological target: T1, ERR1 (also known as ERR-α or ERR-1) (Homo sapiens, UniProt P11474); test: TR-FRET assay: disruption of co-activator peptide binding to ERR1 LBD; format: biochemical; conditions: 6His-tagged ERR1 LBD 6 nM, GST-SRC-2 peptide 6 nM, 25° C., 4-18 hours; average of 3 independent experiments
T1 construct: the ^6His-tagged-ERR1 LBD
T1 sequence (P11474 193-421 limits assumed): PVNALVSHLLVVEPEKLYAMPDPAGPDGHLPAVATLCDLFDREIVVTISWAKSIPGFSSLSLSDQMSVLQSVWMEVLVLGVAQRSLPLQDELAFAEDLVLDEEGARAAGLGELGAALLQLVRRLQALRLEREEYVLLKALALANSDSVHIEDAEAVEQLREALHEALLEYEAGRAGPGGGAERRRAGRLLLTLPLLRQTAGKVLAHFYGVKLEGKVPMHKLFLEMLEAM
Protocol: Time-Resolved Fluorescence Resonance Energy Transfer (TR-FRET) experiments were performed to examine the functional response of ERR1 (also known as ERR-α or ERR-1) ligands. The TR-FRET assay described herein relied on the conformation of ERR1 for binding to a co-activator peptide: when a test compound binds to ERR1 and alters its conformation, it can disrupt the binding of the co-activator peptide. The components of this homogeneous secondary assay included: the ^6His-tagged-ERR1 LBD, a GST-labeled-hSRC2 co-activator polypeptide and a fluorescent donor/acceptor pair from CIS bio international htrf/bioassays (Bedford, Mass.) using both an α-GST Europium Cryptate (Eu) label and an α^6His-XL665 (allophycocyanin) fluorophore.
For TR-FRET measurements, the reaction was buffered in 25 mM Tris pH 8, 2.5 mM Hepes, 20 mM KCl, 1 mM DTT, and 0.05 mg/mL BSA (-lipids). […] Reactions were allowed to reach equilibrium at 25° C. for 4-18 hours before collecting data on the Analyst from LJL Biosystems (Molecular Devices Sunnyvale, Calif.). […] Dose response curves were fitted using a hyperbolic equation and the data reported is the average of 3 independent experiments.

Row | Compound | EC50 [nM]
1 | CCS(=O)(=O)N1CCN(C2=NC(=O)/C(=C/c3ccc(Oc4ccc(C#N)cc4C(F)(F)F)c(F)c3)S2)CC1 [Example 44, 4-{4-[2-(4-Ethanesulfonyl-piperazin-1-yl)-4-oxo-4H-thiazol-5-ylidenemethyl]-2-fluoro-phenoxy}-3-trifluoromethyl-benzonitrile] | 68
2 | COc1cc(/C=C2\SC(NCc3cc(F)cc(F)c3)=NC2=O)ccc1Oc1ccc(C#N)cc1C(F)(F)F [Example 85, 4-{4-[2-(3,5-Difluoro-benzylamino)-4-oxo-4H-thiazol-5-ylidenemethyl]-2-methoxy-phenoxy}-3-trifluoromethyl-benzonitrile] | 57
3 | N#Cc1ccc(Oc2ccc(/C=C3\SC(N)=NC3=O)cc2Cl)c(C(F)(F)F)c1 [Compound 3, 4-[2-Chloro-4-(2-imino-4-oxo-thiazolidin-5-ylidenemethyl)-phenoxy]-3-trifluoromethyl-benzonitrile] | 87
4 | N#Cc1ccc(Oc2ccc(/C=C3\SC(NC4CC4)=NC3=O)cc2F)c(C(F)(F)F)c1 [Compound 10, 4-[4-(2-Cyclopropylamino-4-oxo-4H-thiazol-5-ylidenemethyl)-2-fluoro-phenoxy]-3-trifluoromethyl-benzonitrile] | 52
5 | N#Cc1ccc(Oc2ccc(/C=C3\SC(NCCF)=NC3=O)cc2F)c(C(F)(F)F)c1 [Example 96, 4-{2-Fluoro-4-[2-(2-fluoro-ethylamino)-4-oxo-4H-thiazol-5-ylidenemethyl]-2-fluoro-phenoxy}-3-trifluoromethyl-benzonitrile] | 25
6 | COc1cc(/C=C2\SC(NC3CCNC3)=NC2=O)ccc1Oc1ccc(C#N)cc1C(F)(F)F (centres unmarked) [Compound 13, 4-{2-Methoxy-4-[4-oxo-2-(pyrrolidin-3-ylamino)-4H-thiazol-5-ylidenemethyl]-phenoxy}-3-trifluoromethyl-benzonitrile] | 34
7 | CC(C)c1ccccc1Oc1ccc(/C=C2\SC(N3CC(C(=O)O)C3)=NC2=O)cc1 [Example 118, 1-{5-[4-(2-Isopropyl-phenoxy)-benzylidene]-4-oxo-4,5-dihydro-thiazol-2-yl}-azetidine-3-carboxylic acid] | 21
8 | N#Cc1ccc(Oc2ccc(/C=C3\SC(NCCC4CCOCC4)=NC3=O)cc2F)c(C(F)(F)F)c1 [Example 110, 4-(2-Fluoro-4-{4-oxo-2-[2-(tetrahydro-pyran-4-yl)-ethylamino]-4H-thiazol-5-ylidenemethyl}-phenoxy)-3-trifluoromethyl-benzonitrile] | 26
9 | COc1cc(/C=C2\SC(N3CCCC(O)C3)=NC2=O)ccc1Oc1ccc(C#N)cc1C(F)(F)F (centres unmarked) [Example 102, 4-{4-[2-(3-Hydroxy-piperidin-1-yl)-4-oxo-4H-thiazol-5-ylidenemethyl]-2-methoxy-phenoxy}-3-trifluoromethyl-benzonitrile] | 29
10 | COc1cc(/C=C2\SC(N3CCCC(O)C3)=NC2=O)ccc1Oc1ccc(C(N)=O)cc1C(F)(F)F (centres unmarked) [Example 114, 4-{4-[2-(3-Hydroxy-piperidin-1-yl)-4-oxo-4H-thiazol-5-ylidenemethyl]-2-methoxy-phenoxy}-3-trifluoromethyl-benzamide] | 300

Stronger by EC50, values ahead:

Row | EC50 [nM] | Compound
11 | 12 | CN(CC(O)CO)C1=NC(=O)/C(=C/c2ccc(Oc3ccc(C#N)cc3C(F)(F)F)c(F)c2)S1 (centres unmarked) [Example 50, 4-(4-{2-[(2,3-Dihydroxy-propyl)-methyl-amino]-4-oxo-4H-thiazol-5-ylidenemethyl}-2-fluoro-phenoxy)-3-trifluoromethyl-benzonitrile]
12 | 17 | COc1cc(/C=C2\SC(NCCNC(N)=O)=NC2=O)ccc1Oc1ccc(C#N)cc1C(F)(F)F [Example 74, (2-{5-[4-(4-Cyano-2-trifluoromethyl-phenoxy)-3-methoxy-benzylidene]-4-oxo-4,5-dihydro-thiazol-2-ylamino}-ethyl)-urea]
13 | 15 | COc1cc(/C=C2\SC(NC3CC3)=NC2=O)ccc1Oc1ccc(C#N)cc1C(F)(F)F [Compound 9, 4-[4-(2-Cyclopropylamino-4-oxo-4H-thiazol-5-ylidenemethyl)-2-methoxy-phenoxy]-3-trifluoromethyl-benzonitrile]
14 | 4 | COc1cc(/C=C2\SC(NCCN3CCCC3=O)=NC2=O)ccc1Oc1ccc(Cl)cc1C(F)(F)F [Example 60, 5-[4-(4-Chloro-2-trifluoromethyl-phenoxy)-3-methoxy-benzylidene]-2-[2-(2-oxo-pyrrolidin-1-yl)-ethylamino]-thiazol-4-one]
15 | 17 | N#Cc1ccc(Oc2ccc(/C=C3\SC(NCCn4cncn4)=NC3=O)cc2F)c(C(F)(F)F)c1 [Example 98, 4-{2-Fluoro-4-[4-oxo-2-(2-[1,2,4]triazol-1-yl-ethylamino)-4H-thiazol-5-ylidenemethyl]-phenoxy}-3-trifluoromethyl-benzonitrile]
16 | 4 | O=C1CN(C2=NC(=O)/C(=C/c3ccc(Oc4ccc(Cl)cc4C(F)(F)F)c(F)c3)S2)CCN1 [Example 66, 4-{5-[4-(4-Chloro-2-trifluoromethyl-phenoxy)-3-fluoro-benzylidene]-4-oxo-4,5-dihydro-thiazol-2-yl}-piperazin-2-one]
17 | 13 | COc1cc(/C=C2\SC(NC[C@H](O)CO)=NC2=O)ccc1Oc1ccc(C#N)cc1C(F)(F)F [Example 35, 4-{4-[2-(2S,3-Dihydroxy-propylamino)-4-oxo-4H-thiazol-5-ylidenemethyl]-2-methoxy-phenoxy}-3-trifluoromethyl-benzonitrile]
18 | 6 | COc1cc(/C=C2\SC(N3CCN(C(C)=O)CC3)=NC2=O)ccc1Oc1ccc(C#N)cc1C(F)(F)F [Example 31, 4-{4-[2-(4-Acetyl-piperazin-1-yl)-4-oxo-4H-thiazol-5-ylidenemethyl]-2-methoxy-phenoxy}-3-trifluoromethyl-benzonitrile]
19 | 12 | COc1cc(/C=C2\SC(N)=NC2=O)ccc1Oc1ccc(C#N)cc1C(F)(F)F [Compound 1, 4-[4-(2-Amino-4-oxo-4H-thiazol-5-ylidenemethyl)-2-methoxy-phenoxy]-3-trifluoromethyl-benzonitrile]
20 | 13 | COc1cc(/C=C2\SC(N3CC[C@@H](F)C3)=NC2=O)ccc1Oc1ccc(C#N)cc1C(F)(F)F [Example 90, 4-{4-[2-(3-Fluoro-pyrrolidin-1-yl)-4-oxo-4H-thiazol-5-ylidenemethyl]-2-methoxy-phenoxy}-3-trifluoromethyl-benzonitrile]
21 | 11 | COc1cc(/C=C2\SC(NCCCN3CCOCC3)=NC2=O)ccc1Oc1ccc(C#N)cc1C(F)(F)F [Example 27, 4-{2-Methoxy-4-[2-(3-morpholin-4-yl-propylamino)-4-oxo-4H-thiazol-5-ylidenemethyl]-phenoxy}-3-trifluoromethyl-benzonitrile]
22 | 3 | COc1cc(/C=C2\SC(N3CC(C(=O)O)C3)=NC2=O)ccc1Oc1ccc(C#N)cc1C(F)(F)F [Example 106, 1-{5-[4-(4-Cyano-2-trifluoromethyl-phenoxy)-3-methoxy-benzylidene]-4-oxo-4,5-dihydro-thiazol-2-yl}-azetidine-3-carboxylic acid]
23 | 18 | N#Cc1ccc(Oc2ccc(/C=C3\SC(N)=NC3=O)cc2F)c2ccccc12 [Compound 4, 4-[2-Fluoro-4-(2-imino-4-oxo-thiazolidin-5-ylidenemethyl)-phenoxy]-naphthalene-1-carbonitrile]

Reference: patent publication US8580832B2, “Substituted phenoxy aminothiazolones as estrogen related receptor-α modulators” (Janssen Pharmaceutica N.V., priority 2007, dated 2013)
